US10323000B2, “Indole derivatives and their use in neurodegenerative diseases” (priority 2014, dated 2019)

biological target: human P2X7 receptor (Homo sapiens (Human), UniProt Q99572); test: Pore permeation assay (YO PRO dye uptake); type: cell-based; conditions: not given
Protocol: Agonist-induced pore formation was determined by measuring cellular uptake of YO PRO fluorescence dye in HEK293 transfected with human P2X7 receptor. A HEK293 cell over expressing human P2X7 was harvested using HQTase reagent to detach the cells from T75 cm flask. The harvested cells are centrifuged @1200 rpm for 5 min at room temperature. The viability of cells was determined by Trypan blue dye and the cells are plated @10,000 cell/well in 50 ul volume in a 384W BD Poly lysine coated plate and incubated overnight at 37 C. […] The plate was centrifuged at 1000 rpm for 5 seconds and incubated at room temperature for 30 minutes. The uptake of YO PRO dye into the cells was measured using Envision Fluorescence plate reader instrument (Perkin Elmer).

Sequence of human P2X7 receptor (Q99572 whole entry): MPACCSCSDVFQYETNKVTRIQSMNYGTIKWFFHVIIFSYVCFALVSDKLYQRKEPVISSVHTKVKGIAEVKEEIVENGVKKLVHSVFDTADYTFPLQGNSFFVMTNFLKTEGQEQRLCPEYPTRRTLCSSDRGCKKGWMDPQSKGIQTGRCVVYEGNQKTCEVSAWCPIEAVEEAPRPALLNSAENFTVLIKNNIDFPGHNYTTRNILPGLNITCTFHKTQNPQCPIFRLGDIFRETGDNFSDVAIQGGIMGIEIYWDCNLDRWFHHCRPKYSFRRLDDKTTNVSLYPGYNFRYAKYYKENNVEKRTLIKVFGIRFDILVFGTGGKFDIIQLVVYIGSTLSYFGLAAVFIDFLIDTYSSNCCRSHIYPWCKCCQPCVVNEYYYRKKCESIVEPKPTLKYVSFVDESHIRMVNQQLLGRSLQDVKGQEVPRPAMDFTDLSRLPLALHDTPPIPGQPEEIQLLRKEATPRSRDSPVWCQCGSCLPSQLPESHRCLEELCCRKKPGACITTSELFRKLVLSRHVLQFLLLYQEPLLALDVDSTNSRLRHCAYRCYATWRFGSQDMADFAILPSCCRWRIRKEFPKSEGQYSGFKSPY

Compared with `O=C(NCC(F)F)c1cn(C2COC2)c2cccc(Cl)c12` [Compound 76, 4-Chloro-1-oxetan-3-yl-1H-indole-3-carboxylic acid (2,2-difluoro-ethyl)-amide], `CC1CC(O)(CNC(=O)c2cn(C3COC3)c3cccc(Cl)c23)CCC1(F)F` (stereo not shown) [Compound 46, 4-chloro-N-((4,4-difluoro-1-hydroxy-3-methylcyclohexyl)methyl)-1-(oxetan-3-yl)-1H-indole-3-carboxamide] is lower in IC50: > 1000 nM for the first, 101 to 500 nM for the second.

First: O=C(NCC1CCC(F)(F)CC1)c1cn(CCC(F)F)c2cccc(Cl)c12 [Compound 11, 4-Chloro-1-(3,3-difluoro-propyl)-1H-indole-3-carboxylic acid (4,4-di fluoro-cyclohexyl methyl)-amide]
Second: O=C(NCC1CCC(F)(F)CC1)c1cn(C2CCCO2)c2cccc(Cl)c12 (stereo not shown) [Compound 99, 4-chloro-N-((4,4-difluorocyclohexyl)methyl)-1-(tetrahydrofuran-2-yl)-1H-indole-3-carboxamide]
The IC50 of the first is lower: 10 to 100 nM for the first, 101 to 500 nM for the second. The first is the more potent here.

First: O=C(N[C@@H](C1CCCCC1)C(F)(F)F)c1cn(C2COC2)c2cccc(Cl)c12 [Compound 52, 4-Chloro-1-oxetan-3-yl-1H-indole-3-carboxylic acid ((S)-1-cyclohexyl-2,2,2-trifluoro-ethyl)-amide]
Second: O=C(NC(CCO)C1CCCCC1)c1cn(C2CCOC2)c2cccc(Cl)c12 (stereo not shown) [Compound 110, 4-Chloro-1-(tetrahydro-furan-3-yl)-1H-indole-3-carboxylic acid (1-cyclohexyl-3-hydroxy-propyl)-amide]
The IC50 of the first is higher: 500 to 999 nM for the first, 101 to 500 nM for the second.

Compared with `COCCn1cc(C(=O)NC2COc3ccccc3C2)c2c(Cl)cccc21` (stereo not shown) [Compound 29, 4-Chloro-1-(2-methoxy-ethyl)-1H-indole-3-carboxylic acid chroman-3-ylamide], `COCCn1cc(C(=O)NCc2ccccc2F)c2c(Cl)cccc21` [Compound 25, 4-Chloro-1-(2-methoxy-ethyl)-1H-indole-3-carboxylic acid 2-fluoro-benzylamide] is higher in IC50: 101 to 500 nM for the first, 500 to 999 nM for the second. The first is the more potent here.

`CC(C)(CNC(=O)c1cn(C2CCOC2)c2cccc(Cl)c12)C1CCCC1` (stereo not shown) [Compound 103, 4-Chloro-1-(tetrahydro-furan-3-yl)-1H-indole-3-carboxylic acid (2-cyclopentyl-2-methyl-propyl)-amide] and `CC(C)(CNC(=O)c1cn(C2COC2)c2cccc(Cl)c12)C1CCCC1` [Compound 50, 4-Chloro-1-oxetan-3-yl-1H-indole-3-carboxylic acid (2-cyclopentyl-2-methyl-propyl)-amide] fall in the same range of IC50: 101 to 500 nM for the first, 101 to 500 nM for the second.

Compared with `COCCn1cc(C(=O)NCc2ccccc2C(F)(F)F)c2c(Cl)cccc21` [Compound 24, 4-Chloro-1-(2-methoxy-ethyl)-1H-indole-3-carboxylic acid 2-trifluoromethyl-benzylamide], `COCCn1cc(C(=O)NC[C@@]2(O)CCC[C@@H](C)C2)c2c(Cl)cccc21` [Compound 15, 4-Chloro-1-(2-methoxy-ethyl)-1H-indole-3-carboxylic acid ((1R,3R)-1-hydroxy-3-methyl-cyclohexylmethyl)-amide] is lower in IC50: 500 to 999 nM for the first, 10 to 100 nM for the second.

First: CC(O)(CNC(=O)c1cn(C2COC2)c2cccc(Cl)c12)C1CCCC1 (stereo not shown) [Compound 49, 4-Chloro-1-oxetan-3-yl-1H-indole-3-carboxylic acid (2-cyclopentyl-2-hydroxy-propyl)-amide]
Second: O=C(NC1(C2CCCCC2)CC1)c1cn(C2COC2)c2cccc(Cl)c12 [Compound 55, 4-Chloro-1-oxetan-3-yl-1H-indole-3-carboxylic acid (1-cyclohexyl-cyclopropyl)-amide]
The IC50 of the first is higher: 500 to 999 nM for the first, 101 to 500 nM for the second. The second is the more potent here.

`O=C(NCC1(O)CCCC(F)(F)C1)c1cn(CCN2CCCCC2)c2cccc(Cl)c12` (stereo not shown) [Compound 192, 4-chloro-N-((3,3-difluoro-1-hydroxycyclohexyl)methyl)-1-(2-(piperidin-1-yl)ethyl)-1H-indole-3-carboxamide] and `O=C(NCC1(O)CCCC2(CC2)C1)c1cn(C2COC2)c2cccc(Cl)c12` (stereo not shown) [Compound 57, 4-chloro-N-((5-hydroxyspiro[2.5]octan-5-yl)methyl)-1-(oxetan-3-yl)-1H-indole-3-carboxamide] fall in the same range of IC50: 101 to 500 nM for the first, 101 to 500 nM for the second.

`CC1CC(O)(CNC(=O)c2cn(C3CCCO3)c3cccc(Cl)c23)CCC1(F)F` (stereo not shown) [Compound 97, 4-chloro-N-((4,4-difluoro-1-hydroxy-3-methylcyclohexyl)methyl)-1-(tetrahydrofuran-2-yl)-1H-indole-3-carboxamide] and `O=C(NCC1(O)CCC(F)(F)CC1)c1cn(C2CCOC2)c2cccc(Cl)c12` (stereo not shown) [Compound 104, 4-Chloro-1-(tetrahydro-furan-3-yl)-1H-indole-3-carboxylic acid (4,4-difluoro-1-hydroxy-cyclohexylmethyl)-amide] fall in the same range of IC50: 101 to 500 nM for the first, 101 to 500 nM for the second.

`COCCn1cc(C(=O)NCCC2(O)CCCC2)c2c(Cl)cccc21` [Compound 16, 4-Chloro-1-(2-methoxy-ethyl)-1H-indole-3-carboxylic acid [2-(1-hydroxy-cyclopentyl)-ethyl]-amide] and `O=C(NCC1CCC(F)(F)CC1)c1cn(C2CC3(CNC3)C2)c2cccc(Cl)c12` (stereo not shown) [Compound 172, 4-chloro-N-((4,4-difluorocyclohexyl)methyl)-1-(2-azaspiro[3.3]heptan-6-yl)-1H-indole-3-carboxamide] fall in the same range of IC50: 500 to 999 nM for the first, 500 to 999 nM for the second.

same assay, conditions: HEK293 transfected with human P2X7; BzATP 10 uM; YO PRO dye uptake; read-out: hP2X7 IC50

First: O=C(NC(C1CCCC1)C(F)(F)F)c1cn(C2COC2)c2cccc(Cl)c12 (stereo not shown) [Compound 42, 4-chloro-N-(1-cyclopentyl-2,2,2-trifluoroethyl)-1-(oxetan-3-yl)-1H-indole-3-carboxamide]
Second: C[C@@H](NC(=O)c1cn(C2COC2)c2cccc(Cl)c12)[C@@]12C[C@@H]3C[C@@H](C[C@@](O)(C3)C1)C2 [Compound 61, 4-Chloro-1-oxetan-3-yl-1H-indole-3-carboxylic acid [(3-hydroxy-adamantan-1-yl)-ethyl]-amide]
The IC50 of the first is higher: > 1000 nM for the first, 500 to 999 nM for the second.

`O=C(NCC1(O)CCCC(C(F)(F)F)C1)c1cn(C2COC2)c2cccc(Cl)c12` (stereo not shown) [Compound 47, 4-chloro-N-((1-hydroxy-3-(trifluoromethyl)cyclohexyl)methyl)-1-(oxetan-3-yl)-1H-indole-3-carboxamide] and `O=C(NCCC(F)(F)F)c1cn(C2COC2)c2cccc(Cl)c12` [Compound 77, 4-Chloro-1-oxetan-3-yl-1H-indole-3-carboxylic acid (3,3,3-trifluoro-propyl)-amide] cannot be ordered by IC50: > 1000 nM for the first, > 1000 nM for the second.

`CCOC(C)CNC(=O)c1cn(C2COC2)c2cccc(Cl)c12` (stereo not shown) [Compound 78, 4-Chloro-1-oxetan-3-yl-1H-indole-3-carboxylic acid (2-ethoxy-propyl)-amide] and `CC1(CCNC(=O)c2cn(C3COC3)c3cccc(Cl)c23)OCCO1` [Compound 71, 4-Chloro-1-oxetan-3-yl-1H-indole-3-carboxylic acid [2-(2-methyl-dioxolan-2-yl)-ethyl]-amide] cannot be ordered by IC50: > 1000 nM for the first, > 1000 nM for the second.

`COCCn1cc(C(=O)NCc2ccc3c(c2)OCO3)c2c(Cl)cccc21` [Compound 27, 4-Chloro-1-(2-methoxy-ethyl)-1H-indole-3-carboxylic acid (benzo [1,3]dioxol-5-ylmethyl)-amide] and `COCCn1cc(C(=O)NCc2ccco2)c2c(Cl)cccc21` [Compound 28, 4-Chloro-1-(2-methoxy-ethyl)-1H-indole-3-carboxylic acid (furan-2-ylmethyl)-amide] cannot be ordered by IC50: > 1000 nM for the first, > 1000 nM for the second.

`COCCn1cc(C(=O)NCc2nc3ccccc3s2)c2c(Cl)cccc21` [Compound 31, N-(benzo[d]thiazol-2-ylmethyl)-4-chloro-1-(2-methoxyethyl)-1H-indole-3-carboxamide] and `COCCn1cc(C(=O)NCc2cccc3c2OCCO3)c2c(Cl)cccc21` [Compound 23, 4-Chloro-1-(2-methoxy-ethyl)-1H-indole-3-carboxylic acid (2,3-dihydro-benzo[1,4]dioxin-5-ylmethyl)-amide] cannot be ordered by IC50: > 1000 nM for the first, > 1000 nM for the second.

`O=C(NCC1(O)CCCC(C(F)(F)F)C1)c1cn(CC2CCCO2)c2cccc(Cl)c12` (stereo not shown) [Compound 136, 4-chloro-N-((1-hydroxy-3-(trifluoromethyl)cyclohexyl)methyl)-1-((tetrahydrofuran-2-yl)methyl)-1H-indole-3-carboxamide] and `O=C(NC(C1CCCCC1)C(F)(F)F)c1cn(C2COC2)c2cccc(Cl)c12` (stereo not shown) [Compound 43, 4-chloro-N-(1-cyclohexyl-2,2,2-trifluoroethyl)-1-(oxetan-3-yl)-1H-indole-3-carboxamide] cannot be ordered by IC50: > 1000 nM for the first, > 1000 nM for the second.

Compared with `CC(C)(NC(=O)c1cn(C2COC2)c2cccc(Cl)c12)[C@]12C[C@H]3C[C@H](C[C@H](C3)C1)C2` [Compound 54, 4-Chloro-1-oxetan-3-yl-1H-indole-3-carboxylic acid (1-adamantan-1-yl-1-methyl-ethyl)-amide], `O=C(NC(c1cccs1)C1CCCCC1)c1cn(C2COC2)c2cccc(Cl)c12` (stereo not shown) [Compound 60, 4-Chloro-1-oxetan-3-yl-1H-indole-3-carboxylic acid (cyclohexyl-thiophen-2-yl-methyl)-amide] is higher in IC50: 101 to 500 nM for the first, > 1000 nM for the second.

`CN(C)C(CNC(=O)c1cn(C2CCOC2)c2cccc(Cl)c12)C1CCCCC1` (stereo not shown) [Compound 111, 4-Chloro-1-(tetrahydro-furan-3-yl)-1H-indole-3-carboxylic acid (2-cyclohexyl-2-dimethylamino-ethyl)-amide] and “4-Chloro-1-(tetrahydro-furan-3-yl)-1H-indole-3-carboxylic acid (2-cyclopentyl-2-hydroxy-propyl)-amide [Compound 102]” cannot be ordered by IC50: > 1000 nM for the first, > 1000 nM for the second.

For `COCCn1cc(C(=O)NCc2ccc(C(F)(F)F)cc2)c2c(Cl)cccc21` [Compound 26, 4-Chloro-1-(2-methoxy-ethyl)-1H-indole-3-carboxylic acid 4-trifluoro methyl-benzylamide], the IC50 was > 1000 nM.
